Several values for one entry are separate records, joined by “and”; a condition that tells them apart may be missing. Equal values may be shown once.
Key:
[1] = test system: ERCC1 or XPF levels in A549 cells; experiment: Western blot of ERCC1 and XPF protein levels (PLA control); type: cell-based, human; conditions: 2 µM, 24 h
Method: page 1: Supplementary Material […] Supplementary Figure 1. ERCC1-XPF mediated cleavage of the stem-loop DNA substrate, in which the FAM signal is quenched, releases the fluorescently tagged octanucleotide. Triplicate measurements of the control (DMSO) and the effect of 10 μM of compounds 4 and 6 on the incision activity is shown. 2 PLA Control Experiments Supplementary Figure 2. A549 cells were seeded in 6-well culture dishes (Thermo Fishes Scientific) at a density of 0.3 X 10^6 cells/well in a final volume of 3 ml. […] The chambers were incubated for 24 h and then washed with PBS and the cells were solubilized with RIPA buffer in the presence of protease inhibitor cocktail (Cell Signaling Technology) plus 2 mM EDTA. […] EpiGentek), XPF (LS- C173159, 1:1000; LifeSpan BioSciences, Seattle, WA) and B-Actin (sc-47778, 1:1000; Santa Cruz) primary antibodies followed by secondary anti-mouse or anti-rabbit secondary HRP-conjugated secondary antibodies. ECL chemiluminescent substrate (Promega) was used to detect the proteins. 3 Cytotoxicity Analysis Supplementary Figure 3. Cytotoxicity assay using colony forming assay 4 HCT-116 Derived XPF Knockout Cells For CRISPR deletion of XPF from HCT-116 cells, the pSpCas9(BB)-2A-GFP (pX458) vector (Addgene plasmid # 48138) was used. The short guide sequence to target XPF exon one was: 5'- [NT] 3' and target XPF exon eight was: 5'- [NT]3'. […]

[2] = target: T1, ERCC1-XPF heterodimer in A549 cells (Homo sapiens, UniProt Q92889); experiment: Proximity ligation assay of ERCC1-XPF heterodimerization; type: cell-based; conditions: 2 µM, 24 h
T1 construct: endogenous in cells; host or cells: A549
T1 sequence (Q92889 1-916): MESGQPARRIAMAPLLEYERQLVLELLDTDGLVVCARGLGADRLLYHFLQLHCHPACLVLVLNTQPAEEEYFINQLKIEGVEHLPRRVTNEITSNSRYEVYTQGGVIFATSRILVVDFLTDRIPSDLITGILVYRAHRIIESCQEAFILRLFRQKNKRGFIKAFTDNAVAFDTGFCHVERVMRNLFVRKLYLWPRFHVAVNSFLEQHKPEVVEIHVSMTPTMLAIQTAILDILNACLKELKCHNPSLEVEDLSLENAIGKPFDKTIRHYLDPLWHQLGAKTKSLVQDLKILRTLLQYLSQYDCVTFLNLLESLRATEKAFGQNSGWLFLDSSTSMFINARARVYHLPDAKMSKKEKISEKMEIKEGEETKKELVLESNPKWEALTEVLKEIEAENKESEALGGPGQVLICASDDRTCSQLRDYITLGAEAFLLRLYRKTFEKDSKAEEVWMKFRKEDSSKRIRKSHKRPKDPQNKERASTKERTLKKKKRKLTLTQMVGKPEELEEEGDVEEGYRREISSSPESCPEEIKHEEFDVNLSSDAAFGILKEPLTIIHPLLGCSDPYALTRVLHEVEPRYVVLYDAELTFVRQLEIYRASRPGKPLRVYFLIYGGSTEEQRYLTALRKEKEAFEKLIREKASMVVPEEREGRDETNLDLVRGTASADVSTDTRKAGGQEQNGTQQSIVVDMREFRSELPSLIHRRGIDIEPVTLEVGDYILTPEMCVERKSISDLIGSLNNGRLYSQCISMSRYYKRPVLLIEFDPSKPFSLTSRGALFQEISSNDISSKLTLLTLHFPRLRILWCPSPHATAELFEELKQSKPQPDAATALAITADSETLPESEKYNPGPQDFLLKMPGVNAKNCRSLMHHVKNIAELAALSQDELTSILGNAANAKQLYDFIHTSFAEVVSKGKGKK
Method: A previously published protocol ([73]) was followed with minor modifications. Briefly, 3 x 10^4 A549 cells were seeded in each well of an 8-well Chamber Slide system (Ibidi. Fitchburg, WI) and allowed to adhere overnight. The cells were then treated with the inhibitor (2 μM prepared from a 1 mM stock in DMSO) or vehicle control (0.2% DMSO) and incubated for 24 h. Samples were fixed and processed for protein proximity ligation analysis (PLA) by the Duolink PLA assay kit (Sigma-Aldrich, Oakville, ON) using an ERCC1 antibody (A73368-100, 1/100; EpiGentek, Farmingdale, NY) and an XPF antibody (LS-C173159, 1/100; LifeSpan BioSciences, Seattle, WA). […] Images of the interaction of ERCC1 and XPF represented as red dots were analyzed using IMARIS 9.7 software (Oxford Instruments). Results are expressed as mean values from at least three experiments conducted independently in duplicate.
To confirm that compound 6 was able to disrupt the interaction between subunits in the ERCC1-XPF heterodimer in cells, we performed PLA using A549 lung cancer cells exposed to 2 µM compound 6 or DMSO vehicle for 24 h. […] In the presence of vehicle (0.2% DMSO) alone we observed an average of 75.7 ± 15.4 foci per cell whereas in the presence of compound 6 only an average of 3.1 ± 2.6 foci per cell were detected. […]

SMILES: COc1ccc2nc3cc(Cl)ccc3c(Nc3ccc(O)c(CN4CCN(CCN(C(C)C)C(C)C)CC4)c3)c2c1 [Compound 6]
- levels of ERCC1 or XPF vs untreated cells [1]: no significant differences
- ERCC1-XPF PLA foci per cell [2]: 3.1 ± 2.6 foci per cell and 3 foci per cell

Reference: PMC8968952, “Modulation of ERCC1-XPF Heterodimerization Inhibition via Structural Modification of Small Molecule Inhibitor Side-Chains” (Frontiers in Oncology, 2022)
